Results from patent US10329283B2, “G protein-coupled receptor kinase inhibitors and methods for use of the same” (THE REGENTS OF THE UNIVERSITY OF MICHIGAN, priority 2015, dated 2019).
Where a name gives a salt, the structure may show the parent alone.

Experiments:
Format in all cases: biochemical
Conditions in all cases: 50 nM GRK, 5 μM ATP, 500 nM bROS or tubulin, 5 min
GRK1 = target: T1, GRK1 (Bos taurus, UniProt P28327); assay: GRK1 kinetic assay for inhibition of GRKs (phosphorimaging)
T1 sequence (P28327 1-535 limits assumed): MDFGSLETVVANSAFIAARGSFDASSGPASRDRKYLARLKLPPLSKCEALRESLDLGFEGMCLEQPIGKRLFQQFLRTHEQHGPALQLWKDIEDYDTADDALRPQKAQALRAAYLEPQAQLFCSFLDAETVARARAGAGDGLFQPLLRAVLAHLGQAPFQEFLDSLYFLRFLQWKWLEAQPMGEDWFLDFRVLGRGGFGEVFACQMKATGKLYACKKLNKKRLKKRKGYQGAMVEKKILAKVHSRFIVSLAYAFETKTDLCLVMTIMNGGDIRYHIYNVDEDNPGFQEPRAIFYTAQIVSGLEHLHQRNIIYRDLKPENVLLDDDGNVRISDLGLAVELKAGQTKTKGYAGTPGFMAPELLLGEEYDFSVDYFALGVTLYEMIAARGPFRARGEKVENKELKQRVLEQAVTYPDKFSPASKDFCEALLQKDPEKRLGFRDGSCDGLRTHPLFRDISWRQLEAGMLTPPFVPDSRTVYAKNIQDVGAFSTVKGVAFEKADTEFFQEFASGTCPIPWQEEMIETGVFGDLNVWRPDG
Description: (§1) The low salt concentration and DDM were used to maximize GRK activity and disrupt small molecule aggregates from forming, respectively. […] Data was analyzed and inhibition curves were fit via GraphPad Prism.

GRK2 = target: T2, GRK2 (Homo sapiens, UniProt P25098); assay: GRK2 kinetic assay for inhibition of GRKs (phosphorimaging)
T2 sequence (P25098 1-689): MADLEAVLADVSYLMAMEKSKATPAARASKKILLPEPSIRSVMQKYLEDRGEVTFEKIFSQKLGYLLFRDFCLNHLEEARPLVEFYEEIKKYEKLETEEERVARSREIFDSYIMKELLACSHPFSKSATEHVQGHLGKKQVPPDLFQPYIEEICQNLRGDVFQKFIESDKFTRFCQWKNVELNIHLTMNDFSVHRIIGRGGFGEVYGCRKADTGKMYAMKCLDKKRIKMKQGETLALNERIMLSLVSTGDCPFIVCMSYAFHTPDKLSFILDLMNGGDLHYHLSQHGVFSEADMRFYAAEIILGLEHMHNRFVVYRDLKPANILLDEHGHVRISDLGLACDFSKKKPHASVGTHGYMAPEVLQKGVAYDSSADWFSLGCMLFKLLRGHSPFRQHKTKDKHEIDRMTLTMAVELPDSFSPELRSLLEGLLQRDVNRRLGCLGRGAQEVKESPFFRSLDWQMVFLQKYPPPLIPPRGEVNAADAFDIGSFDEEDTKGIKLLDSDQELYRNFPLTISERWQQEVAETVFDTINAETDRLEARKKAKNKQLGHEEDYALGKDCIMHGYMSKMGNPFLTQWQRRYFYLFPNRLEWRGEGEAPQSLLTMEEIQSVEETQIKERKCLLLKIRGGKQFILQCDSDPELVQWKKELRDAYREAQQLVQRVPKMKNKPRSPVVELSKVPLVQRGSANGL
Description: as §1

GRK5 = GRK5 (Homo sapiens, UniProt P34947); assay: GRK5 kinetic assay for inhibition of GRKs (phosphorimaging)
GRK5, sequence (P34947 whole entry, species assumed): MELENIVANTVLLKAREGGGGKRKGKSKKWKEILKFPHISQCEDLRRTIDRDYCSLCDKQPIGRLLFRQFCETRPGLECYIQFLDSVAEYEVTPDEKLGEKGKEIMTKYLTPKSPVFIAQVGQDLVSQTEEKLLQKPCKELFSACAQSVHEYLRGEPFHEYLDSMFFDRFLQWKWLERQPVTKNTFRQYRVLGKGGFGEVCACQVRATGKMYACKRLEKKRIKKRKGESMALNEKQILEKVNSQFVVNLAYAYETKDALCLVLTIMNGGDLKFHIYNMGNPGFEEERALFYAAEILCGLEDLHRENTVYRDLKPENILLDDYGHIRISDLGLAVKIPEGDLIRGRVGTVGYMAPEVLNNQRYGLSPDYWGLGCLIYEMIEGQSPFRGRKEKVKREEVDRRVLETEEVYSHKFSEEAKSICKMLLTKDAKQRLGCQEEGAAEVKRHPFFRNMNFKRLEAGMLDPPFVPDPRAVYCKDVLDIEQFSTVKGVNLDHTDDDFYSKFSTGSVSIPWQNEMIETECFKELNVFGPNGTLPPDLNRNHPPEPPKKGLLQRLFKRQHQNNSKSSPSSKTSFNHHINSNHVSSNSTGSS
Description: as §1

IC50 (GRK1) [µM]	IC50 (GRK2) [µM]	IC50 (GRK5) [µM]	SMILES
–	3.65	> 100	O=C(Cc1cc([C@@H]2CCNC[C@H]2COc2ccc3c(c2)OCO3)ccc1F)NCCc1ccccn1 [Example E03, 2-(5-((3S,4R)-3-((benzo[d][1,3]dioxol-5-yloxy)methyl)piperidin-4-yl)-2-fluorophenyl)-N-(2-(pyridin-2-yl)ethyl)acetamide hydrochloride]
–	–	> 100	O=C(NCCc1cccnc1)c1cc([C@@H]2CCNC[C@H]2COc2ccc3c(c2)OCO3)ccc1F [Example E25, 5-((3S,4R)-3-((benzo[d][1,3]dioxol-5-yloxy)methyl)piperidin-4-yl)-2-fluoro-N-(2-(pyridin-3-yl)ethyl)benzamide]
–	–	45.5	O=C(NCc1c(F)cccc1F)c1cc([C@@H]2CCNC[C@H]2COc2ccc3c(c2)OCO3)ccc1F [Example E11, 5-((3S,4R)-3-((benzo[d][1,3]dioxol-5-yloxy)methyl)piperidin-4-yl)-N-(2,6-difluorobenzyl)-2-fluorobenzamide hydrochloride]
16.6	1.21	33.6	O=C(NCc1c(Cl)cccc1Cl)c1cc([C@@H]2CCNC[C@H]2COc2ccc3c(c2)OCO3)ccc1F [Example E16, 5-((3S,4R)-3-((benzo[d][1,3]dioxol-5-yloxy)methyl)piperidin-4-yl)-N-(2,6-dichlorobenzyl)-2-fluorobenzamide hydrochloride]
–	–	> 100	O=C(NCCc1ccncc1)c1cc([C@@H]2CCNC[C@H]2COc2ccc3c(c2)OCO3)ccc1F [Example E24, 5-((3S,4R)-3-((benzo[d][1,3]dioxol-5-yloxy)methyl)piperidin-4-yl)-2-fluoro-N-(2-(pyridin-4-yl)ethyl)benzamide]
–	–	> 100	O=C(NCCc1c[nH]cn1)c1cc([C@@H]2CCNC[C@H]2COc2ccc3c(c2)OCO3)ccc1F [Example E28, N-(2-(1H-imidazol-4-yl)ethyl)-5-((3S,4R)-3-((benzo[d][1,3]dioxol-5-yloxy)methyl)piperidin-4-yl)-2-fluorobenzamide]
–	–	76.3	O=C(NCc1cccnc1)c1cc([C@@H]2CCNC[C@H]2COc2ccc3c(c2)OCO3)ccc1F [Example E21, 5-((3S,4R)-3-((benzo[d][1,3]dioxol-5-yloxy)methyl)piperidin-4-yl)-2-fluoro-N-(pyridin-3-ylmethyl)benzamide]

More lines, now with the values behind:

SMILES	IC50 (GRK1) [µM]	IC50 (GRK2) [µM]	IC50 (GRK5) [µM]
O=C(Cc1cc([C@@H]2CCNC[C@H]2COc2ccc3c(c2)OCO3)ccc1F)NCc1ccccn1 [Example E05, 2-(5-((3S,4R)-3-((benzo[d][1,3]dioxol-5-yloxy)methyl)piperidin-4-yl)-2-fluorophenyl)-N-(pyridin-2-ylmethyl)acetamide hydrochloride]	59.2	3.61	> 100
O=C(NCCc1cn[nH]c1)c1cc([C@@H]2CCNC[C@H]2COc2ccc3c(c2)OCO3)ccc1F [Example E08, N-(2-(1H-pyrazol-4-yl)ethyl)-5-((3S,4R)-3-((benzo[d][1,3]dioxol-5-yloxy)methyl)piperidin-4-yl)-2-fluorobenzamide hydrochloride]	–	1.75	> 100
O=C(NCc1ccncc1)c1cc([C@@H]2CCNC[C@H]2COc2ccc3c(c2)OCO3)ccc1F [Example E22, 5-((3S,4R)-3-((benzo[d][1,3]dioxol-5-yloxy)methyl)piperidin-4-yl)-2-fluoro-N-(pyridin-4-ylmethyl)benzamide]	–	–	> 100
COc1cccc(OC)c1CNC(=O)c1cc([C@@H]2CCNC[C@H]2COc2ccc3c(c2)OCO3)ccc1F [Example E15, 5-((3S,4R)-3-((benzo[d][1,3]dioxol-5-yloxy)methyl)piperidin-4-yl)-N-(2,6-dimethoxybenzyl)-2-fluorobenzamide hydrochloride]	22	1.39	> 100
O=C(NCc1ncc[nH]1)c1cc([C@@H]2CCNC[C@H]2COc2ccc3c(c2)OCO3)ccc1F [Example E27, N-((1H-imidazol-2-yl)methyl)-5-((3S,4R)-3-((benzo[d][1,3]dioxol-5-yloxy)methyl)piperidin-4-yl)-2-fluorobenzamide]	–	–	14.8
CN1CC[C@@H](c2ccc(F)cc2)[C@H](COc2ccc3[nH]ncc3c2)C1 [Example E32, 5-(((3S,4R)-4-(4-fluorophenyl)-1-methylpiperidin-3-yl)methoxy)-1H-indazole]	51.8	0.29	33
O=C(NCCc1ccccn1)c1cc([C@@H]2CCNC[C@H]2COc2ccc3c(c2)OCO3)ccc1F [Example E23, 5-((3S,4R)-3-((benzo[d][1,3]dioxol-5-yloxy)methyl)piperidin-4-yl)-2-fluoro-N-(2-(pyridin-2-yl)ethyl)benzamide]	–	–	> 100
COc1ccccc1CNC(=O)Cc1cc([C@@H]2CCNC[C@H]2COc2ccc3c(c2)OCO3)ccc1F [Example E06, 2-(5-((3S,4R)-3-((benzo[d][1,3]dioxol-5-yloxy)methyl)piperidin-4-yl)-2-fluorophenyl)-N-(2-methoxybenzyl)acetamide hydrochloride]	–	0.64	> 100
O=C(NCc1c(C(F)(F)F)cccc1C(F)(F)F)c1cc([C@@H]2CCNC[C@H]2COc2ccc3c(c2)OCO3)ccc1F [Example E14, 5-((3S,4R)-3-((benzo[d][1,3]dioxol-5-yloxy)methyl)piperidin-4-yl)-N-(2,6-bis(trifluoromethyl)benzyl)-2-fluorobenzamide hydrochloride]	23.6	0.77	41.1
COc1ccccc1CNC(=O)c1cc([C@@H]2CCNC[C@H]2COc2ccc3c(c2)OCO3)ccc1F [Example E09, 5-((3S,4R)-3-((benzo[d][1,3]dioxol-5-yloxy)methyl)piperidin-4-yl)-2-fluoro-N-(2-methoxybenzyl)benzamide hydrochloride]	–	48.5	> 100
O=C(NCc1ccccc1)c1cc([C@@H]2CCNC[C@H]2COc2ccc3c(c2)OCO3)ccc1F [Example E19, 5-((3S,4R)-3-((benzo[d][1,3]dioxol-5-yloxy)methyl)piperidin-4-yl)-N-benzyl-2-fluorobenzamide]	–	–	84.3
O=C(Cc1cc([C@@H]2CCNC[C@H]2COc2ccc3c(c2)OCO3)ccc1F)NCCc1cn[nH]c1 [Example E04, N-(2-(1H-pyrazol-4-yl)ethyl)-2-(5-((3S,4R)-3-((benzo[d][1,3]dioxol-5-yloxy)methyl)piperidin-4-yl)-2-fluorophenyl)acetamide hydrochloride]	–	0.62	> 100
O=C(NCc1ccccc1C(F)(F)F)c1cc([C@@H]2CCNC[C@H]2COc2ccc3c(c2)OCO3)ccc1F [Example E10, 5-((3S,4R)-3-((benzo[d][1,3]dioxol-5-yloxy)methyl)piperidin-4-yl)-2-fluoro-N-(2-(trifluoromethyl)benzyl)benzamide hydrochloride]	–	12.5	61.9
O=C(NCc1ccccn1)c1cc([C@@H]2CCNC[C@H]2COc2ccc3c(c2)OCO3)ccc1F [Example E07, 5-((3S,4R)-3-((benzo[d][1,3]dioxol-5-yloxy)methyl)piperidin-4-yl)-2-fluoro-N-(pyridin-2-ylmethyl)benzamide hydrochloride]	–	0.44	15.2
O=C(NCCc1ccccc1)c1cc([C@@H]2CCNC[C@H]2COc2ccc3c(c2)OCO3)ccc1F [Example E20, 5-((3S,4R)-3-((benzo[d][1,3]dioxol-5-yloxy)methyl)piperidin-4-yl)-2-fluoro-N-phenethylbenzamide]	–	–	> 100
